Measured values from US11109593B2, “Isoxazolin-5-one derivative and herbicide containing same as active ingredient” (HOKKO CHEMICAL INDUSTRY CO., LTD., priority 2017, dated 2021).

What was measured:
Type in all cases: in vivo
southern crabgrass [1] = test: Test Example 3: herbicidal effect test by treatment of dry field farming soil (one day after seeding); settings: 120 g/10a active ingredient, evaluated 14 days after treatment
Procedure, shortened: (§1)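 Pre-emergence soil treatment: alluvial dry-field soil, 20 seeds per species mixed into top 1 cm, emulsion diluted in water sprayed one day after seeding at 100 L per 10 ares (120 g active ingredient per 10 ares). Duplicate pots; herbicidal rate (%) from dry weight vs untreated at 14 days.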

Amaranthus viridis [2] = test: as above; settings: 120 g/10a active ingredient, evaluated 14 days after treatment
Procedure, shortened: as §1

Echinochloa crus-galli [3] = test: as above; settings: 120 g/10a active ingredient, evaluated 14 days after treatment
Procedure, shortened: as §1

Chenopodium album [4] = test: as above; settings: 120 g/10a active ingredient, evaluated 14 days after treatment
Procedure, shortened: as §1

Echinochloa crus-galli [5] = test: Test Example 1: herbicidal effect test by treatment of rice paddy soil (immediately after seeding); settings: 120 g/10a active ingredient, dry weight vs untreated area, 14 days after treatment
Procedure, shortened: (§2)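 Puddled, fertilized (N:P:K=17:17:17) paddy soil in Wagner pots; seeds sown 0–1 cm deep, flooded to about 3 cm. Emulsifiable formulations diluted in water and dropped into the water immediately after seeding at 120 g active ingredient per 10 ares; greenhouse. Herbicidal rate from dry weight vs untreated at 14 days.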

[6] = system: broad leaf weeds (Lindernia pyxidaria and Monochoria vaginalis); test: as above; settings: 120 g/10a active ingredient, dry weight vs untreated area, 14 days after treatment
Procedure, shortened: as §2

Scirpus juncoides [7] = test: as above; settings: 120 g/10a active ingredient, dry weight vs untreated area, 14 days after treatment
Procedure, shortened: as §2

Echinochloa crus-galli [8] = test: Test Example 2: herbicidal effect test by treatment during growing period in paddy rice cultivation (seven days after seeding); settings: 120 g/10a active ingredient, assessed 14 days after treatment, dry weight vs untreated area
Procedure, shortened: (§3)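 Paddy soil in Wagner pots with compound fertilizer, puddled; 30 seeds per species sown at 0–1 cm, flooded ~3 cm, greenhouse. Seven days after seeding, water-diluted emulsions were dropped into the water at 120 g active ingredient per 10 ares. Duplicate pots; herbicidal rate from dry weight versus untreated, 14 days after treatment.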

[9] = system: broad leaf weeds (Lindernia pyxidaria and Monochoria vaginalis); test: as above; settings: 120 g/10a active ingredient, assessed 14 days after treatment, dry weight vs untreated area
Procedure, shortened: as §3

Scirpus juncoides [10] = test: as above; settings: 120 g/10a active ingredient, assessed 14 days after treatment, dry weight vs untreated area
Procedure, shortened: as §3

southern crabgrass [11] = test: Test Example 4: herbicidal effect test by treatment of leave and stem in dry field farming (seven days after seeding); settings: 120 g/10a active ingredient; emulsion sprayed seven days after seeding; evaluated 14 days after treatment
Procedure, shortened: (§4)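 Twenty seeds per species were mixed into the top 1 cm of alluvial soil in 36 cm^2 pots; emulsions were sprayed seven days after seeding at 100 L per 10 ares (120 g active ingredient per 10 ares). Herbicidal rate (%) = {1 − treated/untreated mean dry weight} × 100, 14 days after treatment, duplicate.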

Amaranthus viridis [12] = test: as above; settings: 120 g/10a active ingredient; emulsion sprayed seven days after seeding; evaluated 14 days after treatment
Procedure, shortened: as §4

Echinochloa crus-galli [13] = test: as above; settings: 120 g/10a active ingredient; emulsion sprayed seven days after seeding; evaluated 14 days after treatment
Procedure, shortened: as §4

Chenopodium album [14] = test: as above; settings: 120 g/10a active ingredient; emulsion sprayed seven days after seeding; evaluated 14 days after treatment
Procedure, shortened: as §4

Row | Compound | herbicidal rate, southern crabgrass (southern crabgrass [1]) [%] | herbicidal rate, Amaranthus viridis (Amaranthus viridis [2]) [%] | herbicidal rate, Echinochloa crus-galli (Echinochloa crus-galli [3]) [%] | herbicidal rate, Chenopodium album (Chenopodium album [4]) [%] | Herbicidal rate (%) Echinochloa crus-galli (Echinochloa crus-galli [5]) [%] | Herbicidal rate (%) Lindernia pyxidaria [6] [%] | Herbicidal rate (%) Monochoria vaginalis [6] [%] | Herbicidal rate (%) Scirpus juncoides (Scirpus juncoides [7]) [%] | Herbicidal rate (%) Echinochloa crus-galli (Echinochloa crus-galli [8]) [%] | Herbicidal rate (%) Lindernia pyxidaria [9] [%] | Herbicidal rate (%) Monochoria vaginalis [9] [%] | Herbicidal rate (%) Scirpus juncoides (Scirpus juncoides [10]) [%] | herbicidal effect (herbicidal rate), southern crabgrass (southern crabgrass [11]) [%] | herbicidal effect (herbicidal rate), Amaranthus viridis (Amaranthus viridis [12]) [%] | herbicidal effect (herbicidal rate), Echinochloa crus-galli (Echinochloa crus-galli [13]) [%] | herbicidal effect (herbicidal rate), Chenopodium album (Chenopodium album [14]) [%]
1 | CCCCC(C)n1oc(=O)c(Cc2ccccc2NS(=O)(=O)C(F)(F)F)c1C (centres unmarked) [Compound 1-120] | 90 | 50 | 90 | 50 | 100 | 100 | 100 | 100 | 90 | 80 | 80 | 90 | 80 | 60 | 90 | 50
2 | CCC(C)CCn1oc(=O)c(Cc2ccccc2NS(=O)(=O)C(F)(F)F)c1C (centres unmarked) [Compound 1-124] | 80 | 40 | 100 | 50 | 100 | 90 | 90 | 90 | 90 | 60 | 70 | 80 | 60 | 40 | 70 | 40
3 | CCCCC(CC)Cn1oc(=O)c(Cc2ccccc2NS(=O)(=O)C(F)(F)F)c1C (centres unmarked) [Compound 1-130] | 70 | 40 | 90 | 50 | 100 | 100 | 100 | 100 | 100 | 90 | 90 | 80 | 60 | 50 | 60 | 40
4 | C=CC(C)n1oc(=O)c(Cc2ccccc2NS(=O)(=O)C(F)(F)F)c1C (centres unmarked) [Compound 1-136] | 100 | 100 | 100 | 60 | 100 | 80 | 70 | 90 | 90 | 60 | 70 | 90 | 70 | 60 | 70 | 60
5 | C=C(C)Cn1oc(=O)c(Cc2ccccc2NS(=O)(=O)C(F)(F)F)c1C [Compound 1-137] | 50 | 40 | 70 | 40 | 90 | 90 | 70 | 90 | 90 | 40 | 60 | 80 | 0 | 80 | 80 | 0
6 | C#CCn1oc(=O)c(Cc2ccccc2NS(=O)(=O)C(F)(F)F)c1C [Compound 1-138] | 90 | 0 | 90 | 0 | 90 | 100 | 100 | 90 | 90 | 80 | 80 | 80 | 80 | 40 | 80 | 0
7 | Cc1c(Cc2ccccc2NS(=O)(=O)C(F)(F)F)c(=O)on1C1CCCCC1 [Compound 1-142] | 90 | 70 | 100 | 90 | 100 | 100 | 90 | 90 | 100 | 90 | 100 | 90 | 80 | 60 | 90 | 40
8 | Cc1c(Cc2ccccc2NS(=O)(=O)C(F)(F)F)c(=O)on1C(C)C1CC1 (centres unmarked) [Compound 1-144] | 80 | 0 | 70 | 0 | 100 | 90 | 100 | 90 | 90 | 50 | 80 | 90 | 90 | 50 | 90 | 0
